Experimental data from patent US20160220738A1, “PROGESTERONE-CONTAINING COMPOSITIONS AND DEVICES” (priority 2007, published 2016).
Entries after “also recorded” stand apart in the source; their conditions may differ.

What was measured:
[1] = tested on: primary astrocyte cultures; assay: Glucose transport inhibition in astrocytes (Example 13); format: cell-based, rat; conditions: 24 hours exposure
[2] = tested on: platelet suspensions or whole blood; conditions: in vitro; cited from earlier work
ECs = conditions: cited from earlier work
vascular SMCs = conditions: cited from earlier work
[3] = tested on: human aortic smooth muscle cells; assay: Human aortic smooth muscle cell proliferation (Example 10); format: cell-based; conditions: HASMC, progesterone 10 μg/ml; for smooth muscle cell proliferation (in words): up to 8 days
Experimental: For cell cultures grown longer than 3 days, culture medium was changed twice weekly, according to standard protocols in the art, and included antibiotics and other standard additives as appropriate.
(§1) Cell cultures were maintained at 37° C. in an atmosphere containing 5% carbon dioxide. Appropriate precautions were taken to prevent accelerated breakdown, including protection of the cell cultures from light.
At each timepoint, triplicate samples were analyzed via growth measurements. The rate of cell proliferation was assayed by counting the number of cells across the 8 day growth period. Absolute cell density was measured with a Coulter Counter. Cell viability was determined by trypan blue staining.

[4] = tested on: human coronary endothelial cells (HCEC); assay: Human coronary endothelial cell growth (Example 14); format: cell-based
Experimental: In addition, cells will be grown for 5 and 7 days. For cell cultures grown longer than 3 days, culture medium is changed twice weekly, according to standard protocols in the art, and includes antibiotics and other standard additives as appropriate. […] Addition of the progesterone-treated or control (untreated) medium to the cells was counted as day 0. […] Cell cultures were maintained at 37° C. in an atmosphere containing 5% carbon dioxide. Appropriate precautions were taken to prevent accelerated breakdown, including protection of the cell cultures from light. Cultured human coronary endothelial and smooth muscle cells were obtained from commercial services. […] Dilutions were prepared using ethanol such that the total quantity of ethanolic drug volume added to any experimental culture was 10 μL. For proliferation and apoptosis studies, EC or SMC was seeded in multiple culture wells at a density of 5,000 cells/cm^2. […] Cell counts were conducted at days 1, 3, and 5 and will be conducted at day 7, using a Coulter counter. From these counts, the influence of the drug concentration on cell growth rate was calculated. Sampling and analysis of endothelial cells is performed as follows. At each time point, triplicate samples are analyzed for growth measurements. The rate of cell proliferation is assayed by counting the number of cells across the 8 day growth period. Absolute cell density is measured with a Coulter Counter. Cell viability is determined by a live-dead cell apoptosis assay (Molecular Probes, Inc.).

[5] = tested on: human infragenicular VSMCs; assay: Human infragenicular VSMC proliferation under high glucose and insulin (Example 12); format: cell-based; conditions: progesterone 10 ng/mL, glucose 100/200 mg/dL, insulin 0/100 ng/mL, day 6
Experimental: Methods are according to 2002 J Vasc Surg 36, 833-838, except as otherwise noted.
Human infragenicular VSMCs are isolated from the tibial arteries of male patients with diabetes undergoing lower extremity amputation. Immunocytochemical studies with confocal microscopy are performed for progesterone receptor identification in these VSMCs. Cells are grown to subconfluence, followed by exposure to deprived media with various glucose (100 and 200 mg/dL) and insulin (no insulin and 100 ng/mL) concentrations. […] Cell count and methyl-3H-thymidine incorporation are used to determine cellular proliferation. Cell count with hemocytometry is performed on day 6. DNA synthesis as reflected through methyl-3H-thymidine incorporation is measured at 24 hours.

[6] = tested on: human coronary smooth muscle cell (HCSMC); assay: Human coronary smooth muscle cell proliferation (Example 14); format: cell-based; conditions: for difference in growth of progesterone treated SMC versus control: 30 μg/ml; for Average Number of Cells/dish / SMC proliferation (in words): HCSMC, progesterone 30 μg/ml; for SMC proliferation (in words): days 1, 3, 5
Experimental: In addition, cells will be grown for 5 and 7 days. For cell cultures grown longer than 3 days, culture medium is changed twice weekly, according to standard protocols in the art, and includes antibiotics and other standard additives as appropriate.
as §1
Cultured human coronary endothelial and smooth muscle cells were obtained from commercial services. […] Dilutions were prepared using ethanol such that the total quantity of ethanolic drug volume added to any experimental culture was 10 μL. For proliferation and apoptosis studies, EC or SMC was seeded in multiple culture wells at a density of 5,000 cells/cm^2. […] Cell counts were conducted at days 1, 3, and 5 and will be conducted at day 7, using a Coulter counter. From these counts, the influence of the drug concentration on cell growth rate was calculated.
Sampling and analysis of SMC is performed as follows. At each time point, triplicate samples are analyzed for growth measurements. The rate of cell proliferation is assayed by counting the number of cells across the 8 day growth period. Absolute cell density is measured with a Coulter Counter. Cell viability is determined by a live-dead cell apoptosis assay (Molecular Probes, Inc.).

V189 (VEGF189) = conditions: perivascular decidual endometrial cells, mid-late secretory phase and early gestation; cited from earlier work
HAEC = conditions: cited from earlier work
[7] = tested on: human aortic endothelial cells (HAEC) or U937 monocytic cells; conditions: d-alpha-tocopherol 20, 40, 60 micromol/l for 20 h, IL-1beta stimulated; cited from earlier work

**Q.** Which “concentration inhibiting glucose transport” value [1] does the source give for `C[C@]12CCC(=O)C=C1CC[C@@H]1[C@@H]2[C@@H](O)C[C@@]2(C)[C@H]1CC[C@]2(O)C(=O)CO` [cortisol] here?
**A.** Its value is 1 µM.

**Q.** What does the source list for `CCCCC/C=C\C=C\CCCCCCCCC(=O)O` [C18:2t10c12]?
**A.** platelet aggregation [2]: inhibit platelet aggregation; EC production of PAF (ECs): inhibit EC production of PAF; secretion of eicosanoids (PGI2 and PGE2) (vascular SMCs): attenuate secretion of eicosanoids

**Q.** For `CC(=O)[C@H]1CC[C@H]2[C@@H]3CCC4=CC(=O)CC[C@]4(C)[C@H]3CC[C@]12C` [Progesterone, pregn-4-ene-3,20-dione], which “Average number of cells per dish” value ([3]; day 1) is on record?
**A.** The value was 7902 cells per dish.

**Q.** And the “Average number of cells per dish” value ([3]; day 3)?
**A.** Its value is 14871 cells per dish.

**Q.** And the “Average number of cells per dish” value ([3]; day 6)?
**A.** The value was 17618 cells per dish.

**Q.** What about the “Average number of cells per dish” value ([3]; day 8) of the same molecule?
**A.** The value was 20018 cells per dish.

**Q.** What about the “smooth muscle cell proliferation (in words)” value [3] of the same molecule?
**A.** Its value is “decrease SMC's compared to control in a dose response fashion”.

**Q.** What about the “smooth muscle cell proliferation (in words)” value ([3]; listed as progesterone) of the same molecule?
**A.** The value was “inhibited smooth muscle cell proliferation”.

**Q.** What about the “increase in growth of the progesterone treated EC versus control” value ([4]; 30 μg/ml, day 1) of the same molecule?
**A.** Its value is 5.3%.

**Q.** And the “difference in growth of progesterone treated EC versus control” value ([4]; 30 μg/ml, day 3, increase)?
**A.** Its value is 27.5%.

**Q.** And the “difference in growth of progesterone treated EC versus control” value ([4]; 30 μg/ml, day 5, increase)?
**A.** Its value is 29.3%.

**Q.** What about the “Average Number of Cells/dish” value ([4]; HCEC, progesterone 30 μg/ml, day 1) of the same molecule?
**A.** Its value is 6207 Cells/dish.

**Q.** And the “Average Number of Cells/dish” value ([4]; HCEC, progesterone 30 μg/ml, day 3)?
**A.** The value was 7227 Cells/dish.

**Q.** And the “Average Number of Cells/dish” value ([4]; HCEC, progesterone 30 μg/ml, day 5)?
**A.** Its value is 8658 Cells/dish.

**Q.** And the “endothelial cell growth (in words)” value ([4]; HCEC, progesterone 30 μg/ml, days 1, 3, 5)?
**A.** Its value is “promoted growth of the EC both on the first and third days; also recorded: enhanced endothelial cell growth; also recorded: increases endothelial cells”.

**Q.** And the “cellular proliferation by cell count” value [5]?
**A.** The value was “significantly inhibited cellular proliferation”.

**Q.** What about the “difference in growth of progesterone treated SMC versus control” value ([6]; day 1, inhibition) of the same molecule?
**A.** The value was 12.1%.

**Q.** And the “difference in growth of progesterone treated SMC versus control” value ([6]; day 3, inhibition)?
**A.** The value was 20.8%.

**Q.** And the “difference in growth of progesterone treated SMC versus control” value ([6]; day 5, inhibition)?
**A.** Its value is 53.7%.

**Q.** And the “Average Number of Cells/dish” value ([6]; day 1)?
**A.** The value was 7092 Cells/dish.

**Q.** And the “Average Number of Cells/dish” value ([6]; day 3)?
**A.** The value was 9492 Cells/dish.

**Q.** What about the “Average Number of Cells/dish” value ([6]; day 5) of the same molecule?
**A.** Its value is 10844 Cells/dish.

**Q.** What about the “SMC proliferation (in words)” value [6] of the same molecule?
**A.** Its value is “decrease SMC's compared to control in a dose response fashion”.

**Q.** And the “SMC proliferation (in words)” value ([6]; listed as progesterone)?
**A.** Its value is “showed inhibition of SMC on the first day of treatment; also recorded: inhibits SMC proliferation”.

**Q.** And the V189 expression (V189 (VEGF189))?
**A.** The V189 expression was “selectively increases”.

**Q.** Which results are given for `CCCCCC/C=C/C=C\CCCCCCCC(=O)O` [C18:2c9t11, rumenic acid]?
**A.** platelet aggregation [2]: inhibit platelet aggregation; EC production of PAF (ECs): inhibit EC production of PAF; secretion of eicosanoids (PGI2 and PGE2) (vascular SMCs): attenuate secretion of eicosanoids

**Q.** What does the source list for `Cc1c(C)c2c(c(C)c1O)CC[C@@](C)(CCC[C@H](C)CCC[C@H](C)CCCC(C)C)O2` [vitamin E, d-alpha-tocopherol]?
**A.** IL-1beta-induced productions of MCP-1 and IL-8 (HAEC; 20, 40, 60 micromol/l): dose-dependently suppressed; IL-1beta-stimulated expression of ICAM-1, VCAM-1 and E-selectin (HAEC; 20, 40, 60 micromol/l): suppressed; IL-8 production (HAEC; 60 micromol/l): reduced IL-8 production significantly; IL-1beta-induced production of IL-6 (HAEC; at the doses used): dose-dependently inhibited; spontaneous production of IL-6 (HAEC; at the doses used): did not significantly change; spontaneous production of MCP-1 (HAEC; up to 60 micromol/l): not effective; adhesion of HAEC and U937 monocytic cells [7]: inhibited their adhesion

**Q.** For `CCCCCC/C=C/C=C/CCCCCCCC(=O)O` [C18:2t9t11], which platelet aggregation [2] is on record?
**A.** Its platelet aggregation is “inhibit platelet aggregation”.
